In US8455450B2, “Methods for obtaining a therapeutically effective amount of hematopoietic precursor cells and long term engraftment thereof” (Biokine Therapeutics Ltd., priority 2006, dated 2013):
Bridge positions count the residues as written; N and C are the ends. Square brackets hold non-standard residues; d marks the D form. Peptide text beside a SMILES is read from it. * marks the point of attachment. 2Nal = N[C@@H](Cc1ccc2ccccc2c1)C(=O)O; Benzoyl(4-F) = O=C(c1ccc(F)cc1)*; Cit = NC(=O)NCCC[C@H](N)C(=O)O

Assays:
PC3 cells = assay: MIP3α secretion by PC3 prostate cells (ELISA); type: cell-based
Source text: A PC3 prostate cell line that overexpresses high levels of CXCR4 was generated. […] FIG. 1A presents FACS histograms of PC3 cells (left panel) and a single cell clone with stable overexpression of CXCR4, GFP and luc genes (PC3-CXCR4.5, right panel) that were stained for the control (IgG2a-PE, full histograms) and CXCR4 (IgG2a-12G5, empty histograms) antibodies.
In this example, regulation of the chemokine MIP3α (macrophage inflammatory protein 3α) was examined. […] In FIG. 1B, PC3 (left panel) and PC3-CXCR4.5 (right panel) cells were stimulated with the indicated concentrations of CXCL12 for 48 hours and MIP3α secretion was assessed by ELISA. The results represent the average of triplicates±STDEV.
The effects of the CXCR4 antagonist AMD3100 and of 4F-benzoyl-TN14003 (4FB-TN14003), hitherto known as a CXCR4 antagonist, on MIP3α secretion were further tested. […] In FIG. 10, CXCR4 signaling in PC3 (left panel) and PC3-CXCR4.5 (right panel) cells was inhibited with anti-CXCL12 antibodies (αCXCL12) and Pertussis toxin (PTX) treatments alone or in combination with CXCL12, as indicated. Secretion of MIP3α was assessed by ELISA. The results represent the average of triplicates±STDEV.

neutrophils = assay: Chemotherapy (cyclophosphamide)-induced neutropenia model, neutrophil counts; type: in vivo, C57BL/6 mice; conditions: cyclophosphamide 150 + 100 mg/kg i.p. days 1 and 4, treatment s.c. days 4-7 (4F-benzoyl-TN14003 5 mg/kg)
Method: In the chemotherapy-induced neutropenia model, a protocol as previously described was followed (Zuluaga et al., 2006). Briefly, Female C57BL/6 mice were injected intraperitoneally with 150 and 100 mg/kg of Cyclophosphamide (CPM) on days 1 and 4, respectively. Following the treatment with CPM, mice were injected s.c. with either G-CSF […], 4F-benzoyl-TN14003 (5 mg/kg) or their combination on day 4, 5, 6 and 7. Blood samples were drawn from each mouse on day 0 and two hours after G-CSF/4F-benzoyl-TN14003 injections on days 4, 5, 6 and 7. Lysis of the erythrocyte population in the blood samples was done using ACK lysis buffer. The number of neutrophils was determined by FACS after staining the cells with anti-PE-Gr-1 antibody.
Neutropenia was induced in female C57BL/6 mice by administration of a total dose of 250 mg/kg cyclophosphamide (CPM) in two 0.5 mL intraperitoneal injections scheduled at day 1 (150 mg/kg) and day 4 (100 mg/kg). The CPM protocol caused 4 days of neutropenia (from day 4 to day 8). When mice were treated with the combination of G-CSF and 4F-benzoyl-TN14003, a significant number of neutrophils was detected in the blood on day 6, as compared to mice that were treated with CPM only or with G-CSF or 4F-benzoyl-TN14003 alone (FIG. 12).

[1] = tested on: granulocytes (GR-1 positive cells); assay: Granulocyte (GR-1 positive) counts in blood and bone marrow in a chemotherapy model; type: in vivo, mice; conditions: CPM 250 mg/kg total i.p.; 4F-benzoyl-TN14003 5 mg/kg s.c., G-CSF 5 μg/mouse
Method: Mice received a total dose of 250 mg/kg cyclophosphamide (CPM) by two 0.25 ml intra-peritoneal injections scheduled at day 0 (150 mg/kg) and day 3 (100 mg/kg). Mice were subcutaneously treated with 0.2 ml of 4F-benzoyl-TN14003 (5 mg/kg) at the indicated time points, as detailed in FIG. 13A. Flow cytometery was used to assess the number of cells in the blood and bone marrow (BM), and distinguish between the different populations. Cells were gated according to forward scatter and side scatter to exclude dead cells and to identify granulocytes (GR-1 positive cells).
Mice received a total dose of 250 mg/kg CPM by two 0.25 ml intra-peritoneal injections scheduled at day 0 (150 mg/kg) and day 3 (100 mg/kg). Mice were subcutaneously treated with 0.2 ml of 4F-benzoyl-TN14003 (5 mg/kg) or G-CSF 5 μg/mouse or the combination of both at the indicated time points as detailed in FIG. 14A. Flow cytometery was used to assess the number of cells in the blood and bone marrow (BM) and distinguish between the different populations. Cells were gated according to forward scatter and side scatter to exclude dead cells and to determine granulocytes (GR-1 positive cells).

Streptococcus A = assay: Survival of mice upon bacterial infection in a chemotherapy model; type: in vivo; conditions: CPM 250 mg/kg total; Streptococcus A 10^8/mouse s.c. day 0; 4F-benzoyl-TN14003 5 mg/kg s.c., G-CSF 5 μg/mouse
Method: Mice received a total dose of 250 mg/kg CPM by two 0.25 ml intra-peritoneal injections scheduled at day −5 (150 mg/kg) and day −2 (100 mg/kg). Mice were subcutaneously treated with 0.2 ml of 4F-benzoyl-TN14003 (5 mg/kg), alone or in combination with G-CSF (5 μg/mouse), at the time points indicated in FIG. 15A. On day 0, Streptococcus A were subcutaneously injected (10^8/mouse) and the mice were then treated as detailed in FIG. 15A.

[2] = tested on: GR-1 positive cells, MNC and progenitors; assay: Cell counts in a bone marrow transplantation model; type: in vivo, mice; conditions: 900 Rad irradiation, BM transplant 5×10^6/mouse; 5 mg/kg s.c.
Source text: Mice received lethal total body irradiations of 900 Rad and were subsequently transplanted with BM cells from donor healthy mice (5×10^6/mouse). […] Flow cytometery was used to assess the number of cells in the blood and bone marrow (BM), and distinguish between the different populations. Cells were gated according to forward scatter and side scatter to exclude dead cells and to determine granulocytes (GR-1 positive cells) and mononuclear cells (MNC).

progenitor cells = assay: In vitro production of colonies, colony-forming cell assay without stromal cells; type: cell-based; conditions: no stromal cells; 4F-benzoyl-TN14003 10-500 ng/ml, G-CSF 10-500 ng/ml
Method: In order to evaluate the number of progenitor cells, a colony-forming cell assay was used. Burst forming units erythrocyte (BFU-E), colony forming units granulocyte-macrophage (CFU-GM), colony forming units megakaryocytes (CFU-M), and colony forming units granulocyte-erythrocyte-monocyte-macrophage (CFU-GEMM) were assayed by plating the cells (10^5/ml) in Iscove's-modified Dulbecco's Medium (IMDM) containing 1% methylcellulose, 15% FBS, 1% bovine serum albumin (BSA), and 4F-benzoyl-TN14003 by itself (10-500 ng/ml) or in combination with G-CSF (in concentrations of 10-500 ng/ml).

Structure (SMILES): N=C(N)NCCC[C@H](NC(=O)[C@@H]1CSSC[C@H](NC(=O)[C@H](Cc2ccc3ccccc3c2)NC(=O)[C@H](CCCNC(=N)N)NC(=O)[C@H](CCCNC(=N)N)NC(=O)c2ccc(F)cc2)C(=O)N[C@@H](Cc2ccc(O)cc2)C(=O)N[C@@H](CCCNC(N)=O)C(=O)N[C@@H](CCCCN)C(=O)N[C@H](CCCCN)C(=O)N2CCC[C@H]2C(=O)N[C@@H](Cc2ccc(O)cc2)C(=O)N[C@@H](CCCNC(=N)N)C(=O)N[C@@H](CCCNC(N)=O)C(=O)N1)C(N)=O [4F-benzoyl-TN14003, 4F-benzoly-Arg-Arg-Nal-Cys-Tyr-Cit-Lys-DLys-Pro-Tyr-Arg-Cit-Cys-Arg-NH2] ({Benzoyl(4-F)}-RR[2Nal]CY[Cit]K[dK]PYR[Cit]CR-NH2; disulfide 4-13)
- MIP3α secretion (PC3 cells): induced in both cell lines MIP3α secretion in an agonist manner
- number of neutrophils in blood as % of the initial number in normal (untreated) mice (neutrophils; day 6): only a mild effect
- number of neutrophils in blood as % of the initial number (neutrophils; day 7): not sufficient to elevate neutrophil counts to their normal level
- GR-1 positive cells in the blood (flow cytometry) [1]: mobilize GR-1 positive cells to the blood and reduce neutropenia
- relative numbers (ratio) of GR-1 positive cells in the blood and BM [1]: release cells from the inhibitory effect of the BM stroma
- survival of mice after Streptococcus A infection (Streptococcus A): save the mice from death induced by the pathogen
- GR-1 and MNC cell counts in the BM [2]: stimulate GR-1 (left panel) and MNC (right panel) production in the BM
- GR-1 positive cells in the blood [2]: mobilize GR-1 positive cells and reduce neutropenia
- progenitor cell counts (total, CFU-GM, CFU-M, BFU-E, CFU-GEMM) in the BM [2]: stimulate production of various progenitors in the BM
- production of colonies in vitro (progenitor cells): did not stimulate the production of colonies in vitro
